The numbers were not newly measured in US20160220569A1, “CDK4/6 Inhibitor Dosage Formulations For The Protection Of Hematopoietic Stem And Progenitor Cells During Chemotherapy” (G1 Therapeutics, Inc., priority 2015, published 2016), which cites them from elsewhere.

By Cmax is commonly meant the maximum level reached in the sampled fluid or tissue. As a reminder, the Tmax is the time at which the peak concentration occurs. By CL/F is commonly meant the apparent clearance, not corrected for the fraction that reaches the circulation.

Like-named read-outs stand apart in the source and are kept apart here.

For data set [1] the following is noted: cited from earlier work.
For data set [2] the following is noted: cited from earlier work. The source holds these as a separate data set.
The mark [3] stands for this setting: Grade 3/4 neutropenia and leukopenia with palbociclib.

`CCN1CCN(Cc2ccc(Nc3ncc(F)c(-c4cc(F)c5nc(C)n(C(C)C)c5c4)n3)nc2)CC1` [Abemaciclib]: the “diarrhea in clinical trials” value in data set [1] (abemaciclib, gastrointestinal toxicity) is “greater than 50%”.
As to `CN(C)C(=O)c1cc2cnc(Nc3ccc(N4CCNCC4)cn3)nc2n1C1CCCC1` [ribociclib], the associated adverse effect entry in data set [1] (ribociclib administration) is “QT prolongation”.
`CC(=O)c1c(C)c2cnc(Nc3ccc(N4CCNCC4)cn3)nc2n(C2CCCC2)c1=O` [palbociclib, 6-acetyl-8-cyclopentyl-5-methyl-2-(5-piperazin-1-yl-pyridin-2-ylammino)-8H-pyrido-[2,3-d]-pyrimidin-7-one]: in data set [1] (setting [3]), the “patients requiring a dose interruption” value was 71%. Moreover, the “patients requiring a dose reduction” value in data set [1] (setting [3]) is given as 35%. In addition, the “AUC (0-10)” value is 333 ng·h/mL in data set [2] (100 mg QD, Day 1); 433 ng·h/mL in data set [2] (100 mg QD, Day 8); 622 ng·h/mL in data set [2] (150 mg QD, Day 1); 1599 ng·h/mL in data set [2] (150 mg QD, Day 8); 525 ng·h/mL in data set [2] (200 mg QD, Day 1); 1395 ng·h/mL in data set [2] (200 mg QD, Day 8). Besides, the “AUC (0-10)” value is 718 ng·h/mL in data set [2] (225 mg QD, Day 1) and 1491 ng·h/mL in data set [2] (225 mg QD, Day 8). The peak concentration (Cmax) in data set [2] (100 mg QD, Day 1) was 44 ng/mL; in data set [2] (100 mg QD, Day 8), 58 ng/mL; in data set [2] (150 mg QD, Day 1) it was 78 ng/mL; in data set [2] (150 mg QD, Day 8), 194 ng/mL; in data set [2] (150 mg oral) it was 78 ng/mL; in data set [2] (200 mg QD, Day 1) it was 81 ng/mL. Besides, the Cmax was 174 ng/mL in data set [2] (200 mg QD, Day 8); 104 ng/mL in data set [2] (225 mg QD, Day 1); 186 ng/mL in data set [2] (225 mg QD, Day 8). The Tmax in data set [2] (100 mg QD, Day 1) was 4 h; in data set [2] (100 mg QD, Day 8) it was 4 h; in data set [2] (150 mg QD, Day 1), 6 h; in data set [2] (150 mg QD, Day 8), 7 h; in data set [2] (200 mg QD, Day 1), 5.7 h; in data set [2] (200 mg QD, Day 8) it was 4 h. Besides, the time of peak concentration (Tmax) in data set [2] (225 mg QD, Day 1) is given as 4 h; in data set [2] (225 mg QD, Day 8), 4.5 h. In addition, the “AUC(0-inf)” value in data set [2] (150 mg oral) was 2002 n*hr/ml. The apparent clearance CL/F in data set [2] (150 mg oral) was 88.5 L/h. Also, the T1/2 in data set [2] (150 mg oral) is 26.7 h; in data set [2] (palbociclib, literature), “roughly 26.7 hours”.
